Patent US20110306576A1, “COMPOUNDS AND METHODS RELATING THERETO” (PHARMALUCIA LIMITED, priority 2009, published 2011)
Where two headings read alike, the source gives them in different places.

Columns and labels:
[1] = Singlet oxygen production (TPCPD decolourisation in dichloromethane); conditions: singlet oxygen yield relative to methylene blue (= 1.0), time for 50% decrease in TPCPD absorption at 500 nm
Source text: Thus the decrease in absorption at 500 nm was monitored spectrophotometrically with time using the method described by Cincotta et al. in “Novel red absorbing benzo[α]phenoxazinium and benzo[α]phenothiazinium photosensitizers: in vitro evaluation”, Photochem. […] To calculate the singlet oxygen yield for the derivative compounds of the present invention (ΦΔDer), the following formula was used:

[2] = Hydrophilic-lipophilic balance (Log P), phosphate-buffered saline / 1-octanol
Protocol: The data were calculated using the standard spectrophotometric method [ref] based on the relationship:
where A and A^1 are the absorption intensities before and after partitioning respectively and Vw and Vo are the respective volumes of the aqueous and 1-octanol phases. Determinations were repeated three times.

[3] = tested on: clinical strain of Klebsiella pneumoniae; experiment: Antimicrobial screening, photobactericidal efficacy; format: cell-based; conditions: for Minimum bactericidal/fungicidal concentration K. pneumoniae Dark: foil-covered dark control; for Minimum bactericidal/fungicidal concentration K. pneumoniae Light: illuminated 20 min, LED 660 nm, 6.2 J cm^−2
Protocol: (§1) The photobactericidal efficacies of the derivatives in addition to that of the known photosensitiser methylene blue were measured against both Gram positive Staphylococcus aureus (NCTC 6571) and Enterococcus faecalis (NCIMB 13280) and Gram negative Escherichia coli (NCTC 10418), Proteus mirabilis (NCIMB 5887) and a clinical strain of Klebsiella pneumoniae bacteria. Both strains were grown in Mueller-Hinton Broth and then diluted to a concentration of 10^6 colony-forming units/ml. Aliquots of the strains were then incubated for 1 hour at 37° C. in microtitre trays with various concentrations of photosensitiser in a range of from 100 to 3 μM, with zero photosensitiser concentrations in each case for control purposes. The trays were then either illuminated for twenty minutes using an array of light-emitting diodes (660 nm) giving a light dose of 6.2 J cm^−2 or alternatively foil-covered to provide dark controls. From each well showing an inhibition of growth of the micro-organism, 1 μl was sub-cultured on nutrient agar, using the Miles-Misra method, and incubated for 18 hours at 37° C. The minimum bactericidal concentrations were then determined as the lowest concentration for each photosensitiser giving no bacterial growth.

[4] = tested on: Escherichia coli (NCTC 10418); experiment: as above; format: cell-based
Protocol: as §1

[5] = tested on: Proteus mirabilis (NCIMB 5887); experiment: as above; format: cell-based; conditions: for Minimum bactericidal/fungicidal concentration P. mirabilis Dark: foil-covered dark control; for Minimum bactericidal/fungicidal concentration P. mirabilis Light: illuminated 20 min, LED 660 nm, 6.2 J cm^−2
Protocol: as §1

[6] = tested on: Staphylococcus aureus (NCTC 6571); experiment: as above; format: cell-based
Protocol: as §1

[7] = tested on: Enterococcus faecalis (NCIMB 13280); experiment: as above; format: cell-based; conditions: for Minimum bactericidal/fungicidal concentration E. faecalis Dark: foil-covered dark control; for Minimum bactericidal/fungicidal concentration E. faecalis Light: illuminated 20 min, LED 660 nm, 6.2 J cm^−2
Protocol: as §1

[8] = tested on: Candida albicans (NCPF 8179); experiment: Antifungal screening; format: cell-based; conditions: Sabouraud broth and agar; for Minimum bactericidal/fungicidal concentration C. albicans Dark: foil-covered dark control; for Minimum bactericidal/fungicidal concentration C. albicans Light: illuminated 20 min, LED 660 nm, 6.2 J cm^−2
[9] = value given for the standard photosensitiser; cited from earlier work
[10] = partition between phosphate-buffered saline and 1-octanol, spectrophotometric method, repeated three times
[11] = foil-covered dark control, read-out: Minimum Bactericidal Concentration E. coli (Dark)
[12] = illuminated 20 min, LED 660 nm, 6.2 J cm^−2, 1 h incubation at 37° C., read-out: Minimum Bactericidal Concentration E. coli (Light)
[13] = foil-covered dark control, read-out: Minimum Bactericidal Concentration S. aureus (Dark)
[14] = illuminated 20 min, LED 660 nm, 6.2 J cm^−2, 1 h incubation at 37° C., read-out: Minimum Bactericidal Concentration S. aureus (Light)
[15] = Escherichia coli, NCTC10418, foil-covered dark control, read-out: Minimum Bactericidal Concentration E. coli (Dark)
[16] = Escherichia coli, NCTC10418, illuminated 20 min, LED 660 nm, 6.2 J cm^−2, 1 h incubation at 37° C., read-out: Minimum Bactericidal Concentration E. coli (Light)
[17] = Staphylococcus aureus, NCTC6571, foil-covered dark control, read-out: Minimum Bactericidal Concentration S. aureus (Dark)
[18] = Staphylococcus aureus, NCTC6571, illuminated 20 min, LED 660 nm, 6.2 J cm^−2, 1 h incubation at 37° C., read-out: Minimum Bactericidal Concentration S. aureus (Light)
[19] = phosphate-buffered saline / 1-octanol

Molecule	Relative ΦΔ [1]	logP [2, 10]	Minimum bactericidal/fungicidal concentration K. pneumoniae Dark [3] [µM]	Minimum bactericidal/fungicidal concentration K. pneumoniae Light [3] [µM]	MBC [4, 11] [µM]	MBC [4, 12] [µM]	Minimum bactericidal/fungicidal concentration P. mirabilis Dark [5] [µM]	Minimum bactericidal/fungicidal concentration P. mirabilis Light [5] [µM]	MBC [6, 13] [µM]	MBC [6, 14] [µM]	Minimum bactericidal/fungicidal concentration E. faecalis Dark [7] [µM]	Minimum bactericidal/fungicidal concentration E. faecalis Light [7] [µM]	Minimum bactericidal/fungicidal concentration C. albicans Dark [8] [µM]	Minimum bactericidal/fungicidal concentration C. albicans Light [8] [µM]	MBC [4, 15] [µM]	MBC [4, 16] [µM]	MBC [6, 17] [µM]	MBC [6, 18] [µM]	logP [2, 19]	singlet oxygen yield (ΦΔMB) [9]
3-(Di-n-hexylamino)-7-((2-(diethylamino)ethyl)(ethyl)amino)phenothiazinium iodide [Example 7b]	0.4	+1.25	100	0.19	25	6.25	100	0.39	12.5	3.125	100	0.19	25	3.13						
CO[Si](CCCNc1ccc2nc3ccc(N(C)C)cc3[s+]c2c1)(OC)OC [Example 2b, 3-(3-Trimethoxsilylpropyl)amino-7-dimethylaminophenothiazinium hydrogensulphate]			100	1.56			100	1.56			50	0.78	25	3.13						
CN(C)CCCN(CCCN(C)C)c1ccc2nc3ccc(N(CCCN(C)C)CCCN(C)C)cc3[s+]c2c1 [Example 4a, 3,7-Bis(bis(3-(dimethylamino)propyl)amino)phenothiazinium bromide]															12.5	3.12	6.25	3.12		
CCN(CC)CCCN(CCCN(CC)CC)c1ccc2nc3ccc(N(CCCN(CC)CC)CCCN(CC)CC)cc3[s+]c2c1 [Example 4b, 3,7-Bis(bis(3-(diethylamino)propyl)amino)phenothiazinium bromide]															100	25	100	50	0.11	
CCN(CC)CCN(C)c1ccc2nc3ccc(N(C)CCN(CC)CC)cc3[s+]c2c1 [Example 4f, 3,7-Bis((2-(diethylamino)ethyl)(methyl)amino)phenothiazinium bromide]	0.6														> 100	3.12	> 100	6.25	0.27	
CCN(CC)CCCC(C)Nc1ccc2nc3ccc(N(CC)CC)cc3[s+]c2c1 (stereo not drawn) [Example 7a, 3-(Diethylamino)-7-(5-(diethylamino)pentan-2-ylamino)phenothiazinium iodide]	0.2														100	50	100	25	0.65	
CCCCN(CCCC)c1ccc2nc3ccc(N(CC)CCN(CC)CC)cc3[s+]c2c1 [Example 7c, 3-(Di-n-butylamino)-7-((2-(diethylamino)ethyl)(ethyl)amino)phenothiazinium iodide]	0.3		100	6.25			100	0.78			6.25	0.39	25	3.13	25	6.25	25	12.5	1.09	
CCN(CC)CCN(C)c1ccc2nc3ccc(N(CC)CC)cc3[s+]c2c1 [Example 7d, 3-(Diethylamino)-7-((2-(diethylamino)ethyl)(methyl)amino)phenothiazinium iodide]	1.4														100	50	50	25	0.74	
CCCN(CCC)c1ccc2nc3ccc(N(CCCN(C)C)CCCN(C)C)cc3[s+]c2c1 [Example 7e, 3-(Bis(3-(dimethylamino)propyl)amino)-7-(di-n-propylamino)phenothiazinium iodide]			100	3.13			100	0.39			100	0.19	100	3.13	> 100	3.12	> 100	3.12		
OCCN(CCO)c1ccc2nc3ccc(NCCCN4CCOCC4)cc3[s+]c2c1.[I-] [Example 7f]	0.2	+0.57			50	25			25	25										
CCCCN(CCCC)c1ccc2nc3ccc(N4CCN(CCN5CCN(c6ccc7nc8ccc(N(CCCC)CCCC)cc8[s+]c7c6)CC5)CC4)cc3[s+]c2c1.[I-].[I-] [Example 7g, 7,7′-(4,4′-(ethane-1,2-diyl)bis(piperazine-4,1-diyl))bis(3-(dibutylamino)phenothiazin-5-ium)iodide]			100	3.13			100	0.78			12.5	1.56	25	3.13						
CN(C)c1ccc2nc3ccc(N(C)C)cc3[s+]c2c1 [Methylene blue, reference compound]	1.00															25		25		0.443
